# Laboratory results published in ChEMBL document CHEMBL5136975, “NO-HDAC dual inhibitors” (Eur J Med Chem, 2022).
# Legend:
# Assay type in all cases: functional
# [1] = tested on: IMR-32; assay: Antiproliferative activity against human IMR-32 cells assessed as cellular metabolic activity at 1 mM incubated for 24 hrs by resazurin assay
# [2] = tested on: B104; assay: Antiproliferative activity against rat B104 cells assessed as cellular metabolic activity at 1 mM incubated for 24 hrs by MTT assay
# [3] = tested on: IMR-32; assay: Antiproliferative activity against human IMR-32 cells assessed as cellular metabolic activity at 1 mM incubated for 24 hrs by MTT assay
# [4] = tested on: SK-N-SH; assay: Antiproliferative activity against human SK-N-SH cells assessed as cellular metabolic activity at 1 mM incubated for 24 hrs by resazurin assay
# [5] = tested on: SK-N-SH; assay: Antiproliferative activity against human SK-N-SH cells assessed as cellular metabolic activity at 1 mM incubated for 24 hrs by MTT assay
# [6] = tested on: B104; assay: Antiproliferative activity against rat B104 cells assessed as cellular metabolic activity at 1 mM incubated for 24 hrs by resazurin assay
smiles,measurement,setting,value
N[C@@H](CCC(=O)N[C@@H](CSN=O)C(=O)NCC(=O)O)C(=O)O [S-NITROSOGLUTATHIONE],Activity,[1],13%
same,Activity,[2],18%
same,Activity,[3],14%
same,Activity,[4],15%
same,Activity,[5],16%
same,Activity,[6],17%
